Values quoted from earlier work as cited in US4542021A, “Antitumor compositions for non-injection administration” (Yamasa Shoyu Kabushiki Kaisha, priority 1978, dated 1985).

Conditions: in combination with a cytidinedeaminase inhibitor such as tetrahydrouridine; cited from earlier work

Which “effectiveness of oral administration” value does the source give for `Nc1ccn([C@@H]2O[C@H](CO)[C@@H](O)[C@@H]2O)c(=O)n1` [ara-C, 1-β-D-arabinofuranosyl cytosine] here?
Its value is “effective in combination with a cytidinedeaminase inhibitor such as tetrahydrouridine”.
